The values below come from US5496947A, “Quinolone carboxylic acid derivatives” (Dong Wha Pharmaceutical Industrial Co., Ltd., priority 1994, dated 1996).

Format in all cases: cell-based
Assay [1] deals with Enterobacter aerogenes ATCC 13048. Description: MIC, 2-fold dilution method in micro-well plate, E. aerogenes. To be noted: Klebsiella aerogenes. A digest of the protocol:
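Two-fold broth microdilution of hydrochloride salts dissolved in sterile water (10 mg/ml stock). Inoculum from overnight BHI culture at 37° C, about (10^5–10^6)/2 cfu/ml final in well. MIC read after incubation at 37° C.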

Assay [2] relates to Streptococcus pyrogens ATCC 19615. Briefly: MIC, 2-fold dilution method in micro-well plate, S. pyrogens. Conditions: S. pyrogenes ATCC19615, 37° C., read-out: Minimum Inhibitory Concentration. The gist of the method:
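Inoculum from overnight 37° C brain-heart infusion culture gave roughly (10^5-10^6)/2 cfu/mL per well against two-fold serial dilutions of hydrochloride-salt compound in water. Lowest concentration inhibiting growth after 37° C incubation taken as MIC.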

Assay [3] concerns Pseudomonas aeruginosa ATCC 27853. Description: MIC, 2-fold dilution method in micro-well plate, P. aeruginosa. Conditions: P. aerugirnosa ATCC27853, 37° C., read-out: Minimum Inhibitory Concentration. The gist of the method:
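MIC was recorded after 37° C incubation of bacteria with serial two-fold dilutions of compound. Bacteria came from an overnight 37° C BHI culture; the final inoculum was about (10^5-10^6)/2 cfu/ml. Compounds were tested as hydrochloride salts diluted in sterile water from a 10 mg/ml stock.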

The test system of assay [4] is Acinetobacter calcoaceticus. Description: MIC, 2-fold dilution method in micro-well plate, A. calcoaceticus.
The test system of a further assay is Enterobacter cloacae. Description: MIC, 2-fold dilution method in micro-well plate, E. cloacae. To be noted: read-out: Minimum Inhibitory Concentration.
Assay [5] deals with Shigella sonnei ATCC 25931. Briefly: MIC, 2-fold dilution method in micro-well plate, S. sonnei. To be noted: S. sonnei ATCC25931, 37° C., read-out: Minimum Inhibitory Concentration. A digest of the protocol:
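Broth microdilution with 2-fold serial dilutions of compounds as hydrochloride salts in water. Overnight BHI culture of S. sonnei at 37° C added to give about (10^5-10^6)/2 cfu/ml per well. MIC read after incubation at 37° C.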

Assay [6] relates to Proteus vulgaris ATCC 13315. Briefly: MIC, 2-fold dilution method in micro-well plate, P. vulgaris. The gist of the method:
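Two-fold broth dilution in micro-well plates; compounds tested as hydrochloride salts in water. Bacteria from overnight BHI broth culture at 37 °C inoculated to about (10^5–10^6)/2 cfu/ml final; MIC read after incubation at 37 °C.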

For assay [7], the system named is Streptococcus faecalis ATCC 19433. Briefly: MIC, 2-fold dilution method in micro-well plate, S. faecalis ATCC 19433. To be noted: Enterococcus faecalis; S. faecalis ATCC19433, 37° C.; read-out: Minimum Inhibitory Concentration. A digest of the protocol: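 Broth microdilution (2-fold series) with test compounds as hydrochloride salts in sterile water; overnight BHI culture at 37 °C inoculated to about (10^5-10^6)/2 cfu/ml per well. MIC read after incubation at 37 °C.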

The subject of assay [8] is Streptococcus pneumoniae ATCC 6303. Description: MIC, 2-fold dilution method in micro-well plate, S. pneumoniae. Conditions: S. pneuinoniae ATCC6303, 37° C., read-out: Minimum Inhibitory Concentration. A digest of the protocol: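 MIC by 2-fold serial microdilution of compounds as hydrochloride salts in water, against a BHI-grown overnight culture. Final inoculum was about (10^5–10^6)/2 cfu/ml. Plates were incubated at 37° C before the minimum inhibitory concentration was read.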

Assay [9] deals with Serratia marcescens ATCC 8100. Description: MIC, 2-fold dilution method in micro-well plate, S. marcescens. A digest of the protocol:
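Broth microdilution (2-fold series) of hydrochloride salts in water; S. marcescens from overnight BHI culture at 37 °C inoculated to about (10^5-10^6)/2 cfu/ml. MIC read after cultivation at 37 °C.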

The test system of assay [10] is Escherichia coli ATCC 25922. Briefly: MIC, 2-fold dilution method in micro-well plate, E. coli. The gist of the method: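 Broth two-fold microdilution of hydrochloride salts in water against E. coli ATCC 25922 grown overnight in BHI at 37° C. Final inoculum about (10^5 -10^6)/2 cfu/ml; after incubation at 37° C, MIC was recorded.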
Assay [11] relates to Streptococcus faecalis ATCC 29212. Description: MIC, 2-fold dilution method in micro-well plate, S. faecalis ATCC 29212. Conditions: Enterococcus faecalis; S. faecalis ATCC29212, 37° C.; read-out: Minimum Inhibitory Concentration. The gist of the method: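 Compounds were tested as hydrochloride salts by 2-fold serial dilution in water in micro-well plates. Final inoculum was about (10^5-10^6)/2 cfu/ml from overnight BHI broth culture. MIC was read after culture at 37° C.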

The subject of assay [12] is Shigella flexneri ATCC 12022. Description: MIC, 2-fold dilution method in micro-well plate, S. flexneri. Conditions: S. flexneri ATCC12022, 37° C., read-out: Minimum Inhibitory Concentration. The gist of the method: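 Two-fold broth dilution in microwell plates; compounds as hydrochloride salts in sterile water. Overnight BHI-broth culture at 37 °C used as inoculum, giving about (10^5–10^6)/2 cfu/ml per well. MIC read after cultivation at 37 °C.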

The subject of assay [13] is Salmonella typhimurium ATCC 14028. Briefly: MIC, 2-fold dilution method in micro-well plate, S. typhimurium. Conditions: Salmonella enterica, read-out: Minimum Inhibitory Concentration. A digest of the protocol: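 Twofold broth microdilution with overnight BHI culture at 37 °C; inoculum about (10^5-10^6)/2 cfu/ml in wells. Compounds tested as hydrochloride salts from 10 mg/ml aqueous stock; MIC read after incubation at 37 °C.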

Assay [14] concerns Citrobacter freundii ATCC 8090. Description: MIC, 2-fold dilution method in micro-well plate, C. freundii. The gist of the method:
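Broth 2-fold microdilution; compounds tested as hydrochloride salts in sterile water. Inoculum from overnight BHI broth culture at 37° C., final about (10^5-10^6)/2 cfu/ml per well; MIC read after incubation at 37° C.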

Assay [15] deals with Klebsiella pneumoniae ATCC 13883. Briefly: MIC, 2-fold dilution method in micro-well plate, K. pneumoniae. A digest of the protocol: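 Two-fold broth dilution in micro-wells of compound as hydrochloride salt in water. Overnight BHI culture at 37 °C inoculated to about (10^5–10^6)/2 cfu/ml final. MIC read after incubation at 37 °C.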
Assay [16] relates to Haemophilus influenza ATCC 35056. Description: MIC, 2-fold dilution method in micro-well plate, H. influenzae. Conditions: H. influenzae ATCC35056, 37° C.; read-out: Minimum Inhibitory Concentration. A digest of the protocol: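 MIC by 2-fold broth microdilution; compounds as hydrochloride salts in sterile water (10 mg/ml stock). Overnight BHI culture inoculated at about (10^5-10^6)/2 cfu/ml final; MIC read after cultivation at 37° C.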

Setting [17] is: E. aerogenes ATCC13048, 37° C., read-out: Minimum Inhibitory Concentration.
Setting [18] is: A. calcoaceticus ATCC8090 (as in tables), 37° C., read-out: Minimum Inhibitory Concentration.
Where [19] appears, read: P. vulgaris ATCC13315, 37° C., read-out: Minimum Inhibitory Concentration.
Where [20] appears, read: S. marcescens ATCC8100, 37° C., read-out: Minimum Inhibitory Concentration.
Where [21] appears, read: E. coli ATCC25922, 37° C., read-out: Minimum Inhibitory Concentration.
Setting [22] is: S. typhisurium ATCC14028, 37° C.
Where [23] appears, read: K. pneumoniae ATCC13883, 37° C., read-out: Minimum Inhibitory Concentration.
Where [24] appears, read: ATCC13048, read-out: Minimum Inhibitory Concentration.
Setting [25] is: ATCC13315, read-out: Minimum Inhibitory Concentration.
Setting [26] is: ATCC8100, read-out: Minimum Inhibitory Concentration.
Setting [27] is: ATCC25922, read-out: Minimum Inhibitory Concentration.
Where [28] appears, read: ATCC8090, read-out: Minimum Inhibitory Concentration.
Where [29] appears, read: ATCC13883, read-out: Minimum Inhibitory Concentration.

Like-named read-outs stand apart in the source and are kept apart here.

With `Cl.N[C@H]1CCN(c2cc3c(cc2F)c(=O)c(C(=O)O)cn3-c2ccc(F)cn2)C1` [Example 22, 1-(5-fluoro-2-pyridyl)-6-fluoro-7-[(3S)-3-amino-1-pyrrolidinyl]-1,4-dihydro-4-oxoquinoline-3-carboxylic acid hydrochloride], the MIC was 0.078 µg/mL in assay [1] (setting [17]); 2.5 µg/mL in assay [2]; 0.156 µg/mL in assay [3]; 0.313 µg/mL in [4] (setting [18]); 0.078 µg/mL in the assay with Enterobacter cloacae (E. cloacae ATCC23355 (as in tables), 37° C.); 0.039 µg/mL in [5]. The MIC in assay [6] (setting [19]) is 0.078 µg/mL; in assay [7], 0.625 µg/mL; in assay [8], 1.25 µg/mL; in assay [9] (setting [20]), 0.078 µg/mL; in [10] (setting [21]), 0.039 µg/mL; in [11] it was 1.25 µg/mL. The MIC turned out to be 0.156 µg/mL in assay [12]; 0.078 µg/mL in [13] (setting [22]); 0.039 µg/mL in assay [14] (C. freundii ATCC8090, 37° C., read-out: Minimum Inhibitory Concentration); 0.039 µg/mL in [15] (setting [23]); 0.078 µg/mL in [16].

For `Cl.O=C(O)c1cn(-c2ccc(F)cn2)c2c(F)c(N3CCNCC3)c(F)cc2c1=O` [Example 23, 1-(5-fluoro-2-pyridyl)-6,8-difluoro-7-(1-piperazinyl)-1,4-dihydro-4-oxoquinoline-3-carboxylic acid hydrochloride], the MIC in assay [1] (setting [24]) is 0.625 µg/mL; in assay [2], 5 µg/mL; in assay [3], 1.25 µg/mL; in assay [4] (setting [18]), 1.25 µg/mL; with Enterobacter cloacae, 0.625 µg/mL; in assay [5], 0.078 µg/mL. Besides, the MIC turned out to be 0.313 µg/mL in assay [6] (setting [25]); 5 µg/mL in assay [7]; 2.5 µg/mL in assay [8]; 0.625 µg/mL in assay [9] (setting [26]); 0.625 µg/mL in [10] (setting [27]); 5 µg/mL in assay [11]. Moreover, the MIC was 0.313 µg/mL in assay [12]; 0.313 µg/mL in [13]; 0.625 µg/mL in assay [14] (setting [28]); 1.25 µg/mL in assay [15] (setting [23]); 0.625 µg/mL in [16].

In the case of `CN1CCN(c2c(F)cc3c(=O)c(C(=O)O)cn(-c4ccc(F)cn4)c3c2F)CC1.Cl` [Example 24, 1-(5-fluoro-2-pyridyl)-6,8-difluoro-7-(4-methyl-1-piperazinyl)-1,4-dihydro-4-oxoquinoline-3-carboxylic acid hydrochloride], the MIC in assay [1] (setting [24]) is 0.625 µg/mL; in [2] it was 10 µg/mL; in assay [3], 0.625 µg/mL; in assay [4] (setting [28]) it was 0.625 µg/mL; with Enterobacter cloacae, 0.625 µg/mL; in assay [5], 0.156 µg/mL. Moreover, the MIC in [6] (setting [25]) was found to be 0.625 µg/mL; in assay [7] it was 5 µg/mL; in assay [8], 5 µg/mL; in assay [9] (setting [26]), 0.625 µg/mL; in assay [10] (setting [27]) it was 0.625 µg/mL; in assay [11], 2.5 µg/mL. Further, the MIC in assay [12] is 0.625 µg/mL; in assay [13], 0.313 µg/mL; in [14] (setting [28]) it was 0.625 µg/mL; in assay [15] (setting [29]) it was 0.625 µg/mL; in [16], 0.313 µg/mL.

As for `CC1CN(c2c(F)cc3c(=O)c(C(=O)O)cn(-c4ccc(F)cn4)c3c2F)CCN1.Cl` (stereo not shown) [Example 25, 1-(5-fluoro-2-pyridyl)-6,8-difluoro-7-(3-methyl-1-piperazinyl)-1,4-dihydro-4-oxoquinoline-3-carboxylic acid hydrochloride], the MIC in [1] (setting [24]) is 0.625 µg/mL; in assay [2] it was 10 µg/mL; in [3] it was 0.313 µg/mL; in assay [4] (setting [18]) it was 1.25 µg/mL; in the assay on Enterobacter cloacae, 0.625 µg/mL; in assay [5], 0.156 µg/mL. The MIC in assay [6] (setting [25]) worked out at 0.625 µg/mL; in [7] it was 5 µg/mL; in assay [8], 5 µg/mL; in assay [9] (setting [20]) it was 1.25 µg/mL; in assay [10] (setting [27]), 0.625 µg/mL; in assay [11] it was 5 µg/mL. Moreover, the MIC in [12] was 0.156 µg/mL; in [13], 0.625 µg/mL; in assay [14] (setting [28]) it was 0.625 µg/mL; in assay [15] (setting [29]), 0.625 µg/mL; in assay [16], 0.625 µg/mL.

For the compound `CC1CN(c2c(F)cc3c(=O)c(C(=O)O)cn(-c4ccc(F)cn4)c3c2F)CC(C)N1.Cl` (stereo not shown) [Example 26, 1-(5-fluoro-2-pyridyl)-6,8-difluoro-7-(3,5-dimethyl-1-piperazinyl)-1,4-dihydro-4-oxoquinoline-3-carboxylic acid hydrochloride], the MIC in [1] (setting [17]) is 0.625 µg/mL; in [2], 10 µg/mL; in assay [3] it was 0.625 µg/mL; in assay [4] (setting [28]), 1.25 µg/mL; in the assay on Enterobacter cloacae, 1.25 µg/mL; in [5], 0.313 µg/mL. Also, the MIC is 0.255 µg/mL in assay [6] (setting [19]); 5 µg/mL in assay [7]; 5 µg/mL in assay [8]; 1.25 µg/mL in assay [9] (setting [26]); 0.625 µg/mL in [10] (setting [21]); 5 µg/mL in assay [11]. For the same compound, the MIC in [12] was determined as 0.313 µg/mL; in assay [13] (setting [22]), 0.625 µg/mL; in [14] (setting [28]) it was 1.25 µg/mL; in [15] (setting [23]), 0.625 µg/mL; in assay [16] it was 1.25 µg/mL.
